One may read the IC50 as the concentration that inhibits the measured activity by half.

This note sets out measurements from patent publication US20230047816A1 (priority 2018, published 2023).

Molecules are shown by their SMILES.

For this experiment, the target named is Recombinant full length human PFKFB3 (Homo sapiens, UniProt Q16875). Nature of the experiment: PFKFB3 kinase activity assay (ADP production, ADP-Glo). For orientation: ADP-Glo turns the ADP formed in a reaction into a luminescent signal.
Chain of Recombinant full length human PFKFB3 (Q16875 whole entry): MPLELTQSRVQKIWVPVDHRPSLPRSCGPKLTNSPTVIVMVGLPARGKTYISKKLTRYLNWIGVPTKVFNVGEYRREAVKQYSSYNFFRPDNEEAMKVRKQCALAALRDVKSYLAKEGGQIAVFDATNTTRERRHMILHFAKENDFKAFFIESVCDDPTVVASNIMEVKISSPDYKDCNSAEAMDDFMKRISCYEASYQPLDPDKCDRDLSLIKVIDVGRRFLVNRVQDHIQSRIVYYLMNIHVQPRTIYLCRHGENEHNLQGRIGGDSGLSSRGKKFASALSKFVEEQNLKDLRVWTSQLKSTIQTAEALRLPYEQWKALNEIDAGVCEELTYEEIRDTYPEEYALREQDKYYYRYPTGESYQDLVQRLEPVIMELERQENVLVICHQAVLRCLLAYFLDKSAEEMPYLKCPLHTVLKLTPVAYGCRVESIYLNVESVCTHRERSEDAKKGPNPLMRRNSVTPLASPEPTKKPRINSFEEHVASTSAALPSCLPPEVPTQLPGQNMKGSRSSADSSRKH
Turning to `O=C(O)c1ccc2c(c1)C(=O)N(c1cc(-c3cc(F)c(F)cc3F)ccc1C(=O)O)C2=O` [Compound 140, 2-(4-Carboxy-2′,4′,5′-trifluoro[1,1′-biphenyl]-3-yl)-1,3-dioxo-2,3-dihydro-1H-isoindole-5-carboxylic Acid], the IC50 was below 500 nM.

In the case of `O=C(O)c1ccc(-c2ccc(F)c(F)c2)cc1NC(=O)c1ccc(-c2cnn[nH]2)cc1C(=O)O` [Example 22, 3-[2-carboxy-4-(1H-1,2,3-triazol-5-yl)benzamido]-3′,4′-difluoro-[1,1′-biphenyl]-4-carboxylic acid], the IC50 was below 500 nM.

As to `CC1(C)CCC(c2ccc(C(=O)O)c(NC(=O)c3cc(F)c(C(=O)O)cc3C(=O)O)c2)CC1` [Example 63, 4-{[2-carboxy-5-(4,4-dimethylcyclohexyl)phenyl]carbamoyl}-6-fluorobenzene-1,3-dicarboxylic acid], the IC50 was below 500 nM.

For `NC(=O)c1ccc(-c2ccc(F)c(F)c2)cc1N1Cc2ccc(C(=O)O)cc2C1=O` [Compound 119, 2-(4-Carbamoyl-3′,4′-difluorobiphenyl-3-yl)-3-oxo-2,3-dihydro-1H-isoindole-5-carboxylic acid], the IC50 is 5000 to 20000 nM.

On to `O=C(O)c1ccc2c(c1)C(=O)N(c1ccc(-c3ccccc3)cc1-c1nnn[nH]1)C2=O` [Example 2, 1,3-Dioxo-2-[3-(1H-tetrazol-5-yl)-1,1′-biphenyl-4-yl]-2,3-dihydro-1H-isoindole-5-carboxylic Acid], for which the IC50 was below 500 nM.

With `CN(C)CCOC(=O)c1cc(-c2ccccc2)ccc1N1C(=O)c2ccc(-c3c[nH]nn3)cc2C1=O` [Compound 78, 4-[1,3-Dioxo-5-(1H-[1,2,3]triazol-4-yl)-1,3-dihydroisoindol-2-yl]biphenyl-3-carboxylic acid 2-dimethylamino-ethyl ester], the IC50 lay in the range of 5000 to 20000 nM.

Regarding `COc1cc(N2C(=O)c3ccc(C(=O)O)cc3C2=O)ccc1-c1ccccc1` [Example 1], the IC50 fell in the range of 5000 to 20000 nM.

For `O=C(O)c1ccc2c(c1)C(=O)N(c1cc(-c3ccccc3)ccc1O)C2=O` [Example 3, 2-(4-Hydroxy[1,1′-biphenyl]-3-yl)-1,3-dioxo-2,3-dihydro-1H-isoindole-5-carboxylic Acid], the IC50 is 500 to 2000 nM.

As to `COc1ccc(-c2c(C)sc(NC(=O)c3ccc(C(=O)O)cc3C(=O)NCCN(C)C)c2C#N)cc1` [Example 14, 4-{[3-cyano-4-(4-methoxyphenyl)-5-methylthiophen-2-yl]carbamoyl}-3-{[2-(dimethylamino)ethyl]carbamoyl}benzoic acid], the IC50 was below 20000 nM.

As to `O=C(O)c1ccc2c(c1)C(=O)N(c1cc(-c3ccc(F)c(F)c3F)ccc1C(=O)O)C2=O` [Compound 139, 2-(4-Carboxy-2′,3′,4′-trifluoro[1,1′-biphenyl]-3-yl)-1,3-dioxo-2,3-dihydro-1H-isoindole-5-carboxylic Acid], the IC50 is below 500 nM.

In the case of `O=C(O)c1ccc2c(c1)C(=O)N(c1ccc(-c3ccccc3)cc1CO)C2=O` [Example 4], the IC50 lay within 2000 to 5000 nM.

With `COC(=O)c1ccc(-c2ccc(F)c(F)c2)cc1N1Cc2ccc(C(=O)NS(C)(=O)=O)cc2C1=O` [Compound 105, 3′,4′-Difluoro-3-(6-methanesulfonylaminocarbonyl-1-oxo-1,3-dihydroisoindol-2-yl)biphenyl-4-carboxylic acid methyl ester], the IC50 is below 20000 nM.

Turning to `O=C(O)c1cc(C(=O)O)c(C(=O)Nc2cc(-c3ccc(Cl)cc3Cl)ccc2C(=O)O)cc1F` [Example 59, 4-({4-carboxy-2′,4′-dichloro-[1,1′-biphenyl]-3-yl}carbamoyl)-6-fluorobenzene-1,3-dicarboxylic acid], the IC50 was below 500 nM.

As to `CNC(=O)c1cc(CO)ccc1C(=O)Nc1sc(C)c(-c2ccc(OC)cc2)c1C#N` [Example 15, N1-[3-cyano-4-(4-methoxyphenyl)-5-methylthiophen-2-yl]-4-(hydroxymethyl)-N2-methylbenzene-1,2-dicarboxamide], the IC50 was below 20000 nM.

`O=C(O)c1cc(-c2c[nH]cn2)ccc1N1C(=O)c2ccc(-c3c[nH]nn3)cc2C1=O` [Example 60]: the IC50 was below 500 nM.

Take `NC(=O)c1ccc(-c2ccccc2)cc1N1C(=O)c2ccc(-c3nnn[nH]3)cc2C1=O` [Compound 98, 3-[1,3-Dioxo-5-(1H-tetrazol-5-yl)-1,3-dihydroisoindol-2-yl]biphenyl-4-carboxylic acid amide]: the IC50 was in the range of 2000 to 5000 nM.

Turning to `CN(C)CCOC(=O)c1ccc(-c2ccccc2)cc1N1C(=O)c2ccc(-c3c[nH]nn3)cc2C1=O` [Example 66], the IC50 was in the range of 2000 to 5000 nM.

Turning to `COc1ccc(-c2nnn[nH]2)c(N2C(=O)c3ccc(C(=O)O)cc3C2=O)c1` [Example 47, 2-[5-Methoxy-2-(1H-tetrazol-5-yl)phenyl]-1,3-dioxo-2,3-dihydro-1H-isoindole-5-carboxylic acid], the IC50 lay in the range of 500 to 2000 nM.

As to `CNCCOC(=O)c1cc(-c2ccccc2)ccc1N1C(=O)c2ccc(-c3c[nH]nn3)cc2C1=O` [Compound 81, 4-[1,3-Dioxo-5-(1H-[1,2,3]triazol-4-yl)-1,3-dihydroisoindol-2-yl]biphenyl-3-carboxylic acid 2-methylamino-ethyl ester], the IC50 is below 20000 nM.

Take `CC1(C)CCC(c2ccc(C(=O)O)c(NC(=O)c3cc(C(=O)O)c(F)cc3C(=O)O)c2)CC1` [Example 64, 2-{[2-carboxy-5-(4,4-dimethylcyclohexyl)phenyl]carbamoyl}-5-fluorobenzene-1,4-dicarboxylic acid]: the IC50 is below 500 nM.

`COC(=O)c1ccc(-c2ccccc2)cc1N1C(=O)c2ccc(C(=O)NS(C)(=O)=O)cc2C1=O` [Example 41]: the IC50 was below 20000 nM.

As to `O=C(O)c1cc(Cl)c(-c2cnn[nH]2)cc1NC(=O)c1cc(-c2ccc(F)c(F)c2)ccc1C(=O)O` [Example 20, 3-((2-carboxy-4-chloro-5-(1H-1,2,3-triazol-5-yl)phenyl)carbamoyl)-3′,4′-difluoro-[1,1′-biphenyl]-4-carboxylic acid], the IC50 fell in the range of 2000 to 5000 nM.

Turning to `Cn1cc(-c2ccccc2)cc(N2C(=O)c3ccc(-c4c[nH]nn4)cc3C2=O)c1=O` [compound 147, 2-(1-methyl-2-oxo-5-phenyl-1,2-dihydropyridin-3-yl)-5-(1H-1,2,3-triazol-4-yl)isoindoline-1,3-dione], the IC50 is below 20000 nM.

`CN(C)CCOC(=O)c1ccc(-c2ccc(F)c(F)c2)cc1N1Cc2ccc(-c3c[nH]nn3)cc2C1=O` [Compound 112, 3′,4′-Difluoro-3-[1-oxo-6-(1H-[1,2,3]triazol-4-yl)-1,3-dihydroisoindol-2-yl]biphenyl-4-carboxylic acid 2-dimethylamino-ethyl ester]: the IC50 is below 20000 nM.

In the case of `CN(C)CCOC(=O)c1ccc(-c2ccccc2)cc1N1C(=O)c2ccc(-c3nnn[nH]3)cc2C1=O` [Compound 97, 3-[1,3-Dioxo-5-(1H-tetrazol-5-yl)-1,3-dihydroisoindol-2-yl]biphenyl-4-carboxylic acid 2-dimethylamino-ethyl ester], the IC50 is below 500 nM.

`COC(=O)c1ccc(-c2ccccc2)cc1N1C(=O)c2ccc(C(=O)O)cc2C1=O` [Example 37]: the IC50 lay within 500 to 2000 nM.

Regarding `NC(=O)c1[nH]nnc1-c1ccc2c(c1)C(=O)N(c1cc(-c3ccc(F)c(F)c3)ccc1C(=O)O)C2` [compound 164, 3-(6-(5-carbamoyl-1H-1,2,3-triazol-4-yl)-1-oxoisoindolin-2-yl)-3′,4′-difluorobiphenyl-4-carboxylic acid], the IC50 was in the range of 2000 to 5000 nM.

As to `CN(C)C(=O)c1[nH]nnc1-c1ccc2c(c1)C(=O)N(c1cc(-c3ccc(F)c(F)c3)ccc1C(=O)O)C2` [compound 165, 3-(6-(5-(dimethylcarbamoyl)-1H-1,2,3-triazol-4-yl)-1-oxoisoindolin-2-yl)-3′,4′-difluorobiphenyl-4-carboxylic acid], the IC50 lay in the range of 2000 to 5000 nM.

On to `Cc1ccc(-c2ccc(C(=O)O)c(N3C(=O)c4ccc(C(=O)O)cc4C3=O)c2)cc1` [Compound 141, 2-(4-Carboxy-4′-methyl[1,1′-biphenyl]-3-yl)-1,3-dioxo-2,3-dihydro-1H-isoindole-5-carboxylic acid], for which the IC50 is below 500 nM.

In the case of `O=C(O)c1ccc2c(c1)C(=O)N(c1cc(-c3ccccc3)ccc1CO)C2=O` [Example 11], the IC50 fell in the range of 5000 to 20000 nM.

In the case of `O=C(O)c1ccc(-c2ccc(F)c(F)c2)cc1NC(=O)c1cc(-c2cnn[nH]2)ccc1C(=O)O` [Example 21, 3-(2-carboxy-5-(1H-1,2,3-triazol-5-yl)benzamido)-3′,4′-difluoro-[1,1′-biphenyl]-4-carboxylic acid], the IC50 is below 500 nM.

For the compound `N#Cc1c(NC(=O)c2ccc(C(=O)O)cc2C(N)=O)sc(-c2ccccc2)c1-c1ccccc1` [Example 11, 3-carbamoyl-4-[(3-cyano-4,5-diphenylthiophen-2-yl)carbamoyl]benzoic acid], the IC50 was below 500 nM.

As to `COc1ccc(-c2c(C)sc(N3C(=O)c4ccc(C(=O)N[C@@H](CCC(N)=O)C(=O)O)cc4C3=O)c2C#N)cc1` [Example 21], the IC50 was 5000 to 20000 nM.

`COc1ccc(-c2ccc(C(=O)O)c(N3C(=O)c4ccc(C(=O)O)cc4C3=O)c2)cc1` [Example 55]: the IC50 is below 500 nM.

Consider `O=C(O)c1cc(-c2cncnc2)ccc1N1C(=O)c2ccc(-c3c[nH]nn3)cc2C1=O` [Example 64], for which the IC50 is below 20000 nM.

For the compound `O=C(O)c1cc(C(=O)Nc2cc(N3CC4CCC3C4)ccc2C(=O)O)c(C(=O)O)cc1O` (centres unmarked) [Example 61, 2-[(5-{2-azabicyclo[2.2.1]heptan-2-yl}-2-carboxyphenyl)carbamoyl]-5-hydroxybenzene-1,4-dicarboxylic acid], the IC50 is below 500 nM.

For `O=C(O)c1ccc(-c2ccccc2)cc1N1C(=O)c2ccc(-c3nnn[nH]3)cc2C1=O` [Compound 95, 3-[1,3-Dioxo-5-(1H-tetrazol-5-yl)-1,3-dihydroisoindol-2-yl]biphenyl-4-carboxylic Acid], the IC50 was below 500 nM.

Take `CN1CCC(OC(=O)c2ccc(-c3ccc(Cl)cc3Cl)cc2NC(=O)c2cc(O)c(C(=O)O)cc2C(=O)O)C1` (centres unmarked) [Example 67, 4-[(2′,4′-dichloro-4-{[(1-methylpyrrolidin-3-yl)oxy]carbonyl}-[1,1′-biphenyl]-3-yl)carbamoyl]-6-hydroxybenzene-1,3-dicarboxylic acid]: the IC50 is below 500 nM.
